pIC50: −log10 of the molar value.
Key:
KRAS G12V = KRAS G12V (Homo sapiens, UniProt P01116, G12V); experiment: GDP-GTP exchange assay (bodipy-GDP/GppNHp, SOS1), KRAS G12V; type: biochemical; details: KRAS G12V mutant; value for the most potent isomer quoted for certain compounds; read-out: G12V (KRAS G12V exchange assay IC50)
KRAS G12D = KRAS G12D (Homo sapiens, UniProt P01116, G12D); experiment: GDP-GTP exchange assay (bodipy-GDP/GppNHp, SOS1), KRAS G12D; type: biochemical; details: bodipy-loaded KRAS G12D 2.5 nM, 4 h pre-incubation; value for the most potent isomer quoted for certain compounds; read-out: G12D (KRAS G12D exchange assay IC50)
Chain of KRAS G12D (P01116 1-188 isoform P01116-2 G12D): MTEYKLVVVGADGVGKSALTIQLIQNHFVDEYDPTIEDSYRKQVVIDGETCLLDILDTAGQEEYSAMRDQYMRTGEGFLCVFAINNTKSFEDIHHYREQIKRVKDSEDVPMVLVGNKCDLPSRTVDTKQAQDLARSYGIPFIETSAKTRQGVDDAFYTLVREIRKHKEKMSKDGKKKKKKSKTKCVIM

Chain of KRAS G12V (P01116 1-188 isoform P01116-2 G12V): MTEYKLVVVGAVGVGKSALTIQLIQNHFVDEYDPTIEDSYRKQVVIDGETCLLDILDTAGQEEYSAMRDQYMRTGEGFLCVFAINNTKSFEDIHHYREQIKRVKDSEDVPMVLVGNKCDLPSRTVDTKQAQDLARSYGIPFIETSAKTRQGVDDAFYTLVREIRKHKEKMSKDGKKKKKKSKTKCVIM

SMILES | pIC50 (KRAS G12V) | pIC50 (KRAS G12D)
COC(=O)c1cnn([C@H]2C[C@H](c3cc4c(C)nc5c(F)c(-c6cccc(Cl)c6Cl)c(CCC#N)cc5c4n3[C@H]3[C@H]4CN[C@@H]3C4)N(C(=O)C3CC3)C2)c1 [Example 353] | ≥ 7.00 | ≥ 7.00
Cc1nc2c(F)c(-c3cccc(Cl)c3Cl)c(CCC#N)cc2c2c1cc([C@H]1C[C@H](n3cc(-c4ccccc4)cn3)CN1C(=O)C1CC1)n2[C@H]1[C@H]2CN[C@@H]1C2 [Example 354] | 6.00 to 7.00 | ≥ 7.00
Cc1cc(C)n([C@H]2C[C@H](c3cc4c(C)nc5c(F)c(-c6cccc(Cl)c6Cl)c(CCC#N)cc5c4n3[C@H]3[C@H]4CN[C@@H]3C4)N(C(=O)C3CC3)C2)n1 [Example 355] | ≥ 7.00 | ≥ 7.00
Cc1nc2c(F)c(-c3cccc(Cl)c3Cl)c(CCC#N)cc2c2c1cc([C@H]1C[C@H](n3cc4c(n3)CCC4)CN1C(=O)C1CC1)n2[C@H]1[C@H]2CN[C@@H]1C2 [Example 356] | ≥ 7.00 | ≥ 7.00
Cc1nc2c(F)c(-c3cccc(Cl)c3Cl)c(CCC#N)cc2c2c1cc([C@H]1C[C@H](Oc3ccn(C(F)(F)F)n3)CN1C(=O)C1CC1)n2[C@H]1[C@H]2CN[C@@H]1C2 [Example 357] | ≥ 7.00 | ≥ 7.00
Cc1nc(CO[C@H]2C[C@H](c3cc4c(C)nc5c(F)c(-c6cccc(Cl)c6Cl)c(CCC#N)cc5c4n3[C@H]3[C@H]4CN[C@@H]3C4)N(C(=O)C3CC3)C2)sc1C [Example 358] | ≥ 7.00 | ≥ 7.00
Cc1csc(CO[C@H]2C[C@H](c3cc4c(C)nc5c(F)c(-c6cccc(Cl)c6Cl)c(CCC#N)cc5c4n3[C@H]3[C@H]4CN[C@@H]3C4)N(C(=O)C3CC3)C2)n1 [Example 359] | ≥ 7.00 | ≥ 7.00
Cc1nc2c(F)c(-c3cccc(Cl)c3Cl)c(CCC#N)cc2c2c1cc([C@H]1C[C@H](OCc3nc4ccccc4s3)CN1C(=O)C1CC1)n2[C@H]1[C@H]2CN[C@@H]1C2 [Example 360] | ≥ 7.00 | ≥ 7.00
Cc1nc2c(F)c(-c3cccc(Cl)c3Cl)c(CCC#N)cc2c2c1cc([C@H]1C[C@H](OCc3cc(C(F)(F)F)on3)CN1C(=O)C1CC1)n2[C@H]1[C@H]2CN[C@@H]1C2 [Example 361] | ≥ 7.00 | ≥ 7.00
[2H]C([2H])(O[C@H]1C[C@H](c2cc3c(C)nc4c(F)c(-c5cccc(Cl)c5Cl)c(CCC#N)cc4c3n2[C@H]2[C@H]3CN[C@@H]2C3)N(C(=O)C2CC2)C1)c1nccs1 [Example 362] | ≥ 7.00 | ≥ 7.00
Cc1nc2c(F)c(-c3cccc(Cl)c3Cl)c(CCC#N)cc2c2c1cc([C@H]1C[C@H](OC(C)c3nccs3)CN1C(=O)C1CC1)n2[C@H]1[C@H]2CN[C@@H]1C2 (stereo partly drawn) [Example 363] | ≥ 7.00 | ≥ 7.00
Cc1nc2c(F)c(-c3cccc(Cl)c3Cl)c(CCC#N)cc2c2c1cc([C@H]1C[C@H](OC3CCOC3)CN1C(=O)C1CC1)n2[C@H]1[C@H]2CN[C@@H]1C2 (stereo partly drawn) [Example 364] | ≥ 7.00 | ≥ 7.00
Cc1nc2c(F)c(-c3cccc(Cl)c3Cl)c(CCC#N)cc2c2c1cc([C@H]1C[C@H](O[C@H]3CCOC3)CN1C(=O)C1CC1)n2[C@H]1[C@H]2CN[C@@H]1C2 [Example 365] | ≥ 7.00 | ≥ 7.00
COC1CN(c2cc(O[C@H]3C[C@H](c4cc5c(C)nc6c(F)c(-c7cccc(Cl)c7Cl)c(CCC#N)cc6c5n4[C@H]4[C@H]5CN[C@@H]4C5)N(C(=O)C4CC4)C3)ccn2)C1 [Example 366] | ≥ 7.00 | ≥ 7.00
COC1CN(c2ccnc(O[C@H]3C[C@H](c4cc5c(C)nc6c(F)c(-c7cccc(Cl)c7Cl)c(CCC#N)cc6c5n4[C@H]4[C@H]5CN[C@@H]4C5)N(C(=O)C4CC4)C3)c2)C1 [Example 367] | ≥ 7.00 | ≥ 7.00
Cc1nc2c(F)c(-c3cccc(Cl)c3Cl)c(CCC#N)cc2c2c1cc([C@H]1C[C@H](Oc3ccnc(N4CC(OC(F)F)C4)c3)CN1C(=O)C1CC1)n2[C@H]1[C@H]2CN[C@@H]1C2 [Example 368] | ≥ 7.00 | ≥ 7.00
Cc1nc2c(F)c(-c3cccc(Cl)c3Cl)c(CCC#N)cc2c2c1cc([C@H]1C[C@H](Oc3cc(N4CC(OC(F)F)C4)ccn3)CN1C(=O)C1CC1)n2[C@H]1[C@H]2CN[C@@H]1C2 [Example 369] | ≥ 7.00 | ≥ 7.00
Cc1nc2c(F)c(-c3cccc(Cl)c3Cl)c(CCC#N)cc2c2c1cc([C@H]1C[C@H](Oc3ccnc(N4CC(C(F)F)C4)c3)CN1C(=O)C1CC1)n2[C@H]1[C@H]2CN[C@@H]1C2 [Example 370] | ≥ 7.00 | ≥ 7.00
Cc1nc2c(F)c(-c3cccc(Cl)c3Cl)c(CCC#N)cc2c2c1cc([C@H]1C[C@H](Oc3cc(N4CC(C(F)F)C4)ccn3)CN1C(=O)C1CC1)n2[C@H]1[C@H]2CN[C@@H]1C2 [Example 371] | ≥ 7.00 | ≥ 7.00
Cc1nc2c(F)c(-c3cccc(Cl)c3Cl)c(CCC#N)cc2c2c1cc([C@H]1C[C@H](OC[C@H]3CCOC3)CN1C(=O)C1CC1)n2[C@H]1[C@H]2CN[C@@H]1C2 [Example 372] | ≥ 7.00 | ≥ 7.00
Cc1nc2c(F)c(-c3cccc(Cl)c3Cl)c(CCC#N)cc2c2c1cc([C@H]1C[C@H](OC[C@@H]3CCOC3)CN1C(=O)C1CC1)n2[C@H]1[C@H]2CN[C@@H]1C2 [Example 373] | ≥ 7.00 | ≥ 7.00
Cc1nc2c(F)c(-c3cccc(Cl)c3Cl)c(CCC#N)cc2c2c1cc([C@H]1C[C@H](Oc3cnn(C(F)(F)F)c3)CN1C(=O)C1CC1)n2[C@H]1[C@H]2CN[C@@H]1C2 [Example 374] | ≥ 7.00 | ≥ 7.00
Cc1nc2c(F)c(-c3cccc(Cl)c3Cl)c(CCC#N)cc2c2c1cc([C@H]1C[C@H](Oc3cc(C(F)(F)F)nn3C)CN1C(=O)C1CC1)n2[C@H]1[C@H]2CN[C@@H]1C2 [Example 375] | ≥ 7.00 | ≥ 7.00
Cc1nc2c(F)c(-c3cccc(Cl)c3Cl)c(CCC#N)cc2c2c1cc([C@H]1C[C@H](Oc3cn(C)nc3C(F)(F)F)CN1C(=O)C1CC1)n2[C@H]1[C@H]2CN[C@@H]1C2 [Example 376] | ≥ 7.00 | ≥ 7.00
Cc1nc2c(F)c(-c3cccc(Cl)c3Cl)c(CCC#N)cc2c2c1cc([C@H]1C[C@H](Oc3cnn(CC(F)F)c3)CN1C(=O)C1CC1)n2[C@H]1[C@H]2CN[C@@H]1C2 [Example 377] | ≥ 7.00 | ≥ 7.00
Cc1nc2c(F)c(-c3cccc(Cl)c3Cl)c(CCC#N)cc2c2c1cc([C@H]1C[C@H](OC3CC3C(=O)NC(C)(C)C)CN1C(=O)C1CC1)n2[C@H]1[C@H]2CN[C@@H]1C2 (stereo partly drawn) [Example 378] | ≥ 7.00 | ≥ 7.00
Cc1nc2c(F)c(-c3cccc(Cl)c3Cl)c(CCC#N)cc2c2c1cc([C@H]1C[C@H](OC3CC3C)CN1C(=O)C1CC1)n2[C@H]1[C@H]2CN[C@@H]1C2 (stereo partly drawn) [Example 379] | ≥ 7.00 | ≥ 7.00
Cc1nc2c(F)c(-c3cccc(Cl)c3Cl)c(CCC#N)cc2c2c1cc([C@H]1C[C@H](n3cc(C(F)F)nn3)CN1C(=O)C1CC1)n2[C@H]1[C@H]2CN[C@@H]1C2 [Example 380] | ≥ 7.00 | ≥ 7.00
Cc1nc2c(F)c(-c3cccc(Cl)c3Cl)c(CCC#N)cc2c2c1cc([C@H]1C[C@H](n3cc(C4(CF)CC4)nn3)CN1C(=O)C1CC1)n2[C@H]1[C@H]2CN[C@@H]1C2 [Example 381] | ≥ 7.00 | ≥ 7.00
Cc1nc2c(F)c(-c3cccc(Cl)c3Cl)c(CCC#N)cc2c2c1cc([C@H]1C[C@H](n3cc(C4(C(C)(F)F)CC4)nn3)CN1C(=O)C1CC1)n2[C@H]1[C@H]2CN[C@@H]1C2 [Example 382] | ≥ 7.00 | ≥ 7.00

Reference: patent US20240390340A1 (INCYTE CORPORATION, priority 2023, published 2024)
